Assay results: PubChem BioAssay (NCI)
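The compound was tested at five concentrations on cells cultured in 96-well plates, with a 48-hour exposure period. Here, GI50 denotes the concentration required for 50% inhibition of growth. The concentration for full growth arrest is given as TGI.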

Legend:
Assay in all cases: NCI tumour cell line growth inhibition, 48 h
A498 renal = tested on: A498 renal
ACHN renal = tested on: ACHN renal
CAKI-1 renal = tested on: CAKI-1 renal
EKVX NSCLC = tested on: EKVX NSCLC
HCC-2998 colon = tested on: HCC-2998 colon
HCT-15 colon = tested on: HCT-15 colon
HOP-92 NSCLC = tested on: HOP-92 NSCLC
HS 578T breast = tested on: HS 578T breast
LOX IMVI melanoma = tested on: LOX IMVI melanoma
MCF7 breast = tested on: MCF7 breast
MDA-MB-435 = tested on: MDA-MB-435
NCI-H23 lung = tested on: NCI-H23 lung
OVCAR-3 ovarian = tested on: OVCAR-3 ovarian
OVCAR-5 ovarian = tested on: OVCAR-5 ovarian
PC-3 prostate = tested on: PC-3 prostate
RXF 393 renal = tested on: RXF 393 renal
SF-295 CNS = tested on: SF-295 CNS
SF-539 CNS = tested on: SF-539 CNS
SK-MEL-28 melanoma = tested on: SK-MEL-28 melanoma
SK-MEL-5 melanoma = tested on: SK-MEL-5 melanoma
SW-620 colon = tested on: SW-620 colon
UO-31 renal = tested on: UO-31 renal
786-0 renal = tested on: 786-0 renal
A549 NSCLC = tested on: A549 NSCLC
BT-549 breast = tested on: BT-549 breast
CCRF-CEM leukemia = tested on: CCRF-CEM leukemia
COLO 205 colon = tested on: COLO 205 colon
DU-145 prostate = tested on: DU-145 prostate
HCT-116 colon = tested on: HCT-116 colon
HL-60(TB) leukemia = tested on: HL-60(TB) leukemia
HOP-62 NSCLC = tested on: HOP-62 NSCLC
HT29 colon = tested on: HT29 colon
IGROV1 ovarian = tested on: IGROV1 ovarian
K-562 leukemia = tested on: K-562 leukemia
KM12 colon = tested on: KM12 colon
M14 melanoma = tested on: M14 melanoma
MALME-3M melanoma = tested on: MALME-3M melanoma
MDA-MB-231 breast = tested on: MDA-MB-231 breast
MOLT-4 leukemia = tested on: MOLT-4 leukemia
NCI-H226 lung = tested on: NCI-H226 lung
NCI-H460 lung = tested on: NCI-H460 lung
NCI-H522 lung = tested on: NCI-H522 lung
NCI/ADR-RES ovarian = tested on: NCI/ADR-RES ovarian
OVCAR-4 ovarian = tested on: OVCAR-4 ovarian
OVCAR-8 ovarian = tested on: OVCAR-8 ovarian
SF-268 CNS = tested on: SF-268 CNS
SK-MEL-2 melanoma = tested on: SK-MEL-2 melanoma
SK-OV-3 ovarian = tested on: SK-OV-3 ovarian
SN12C renal = tested on: SN12C renal
SNB-19 CNS = tested on: SNB-19 CNS
SNB-75 CNS = tested on: SNB-75 CNS
T-47D breast = tested on: T-47D breast
TK-10 renal = tested on: TK-10 renal
U251 CNS = tested on: U251 CNS
UACC-257 melanoma = tested on: UACC-257 melanoma
UACC-62 melanoma = tested on: UACC-62 melanoma

In the case of OCCN1CCN(c2nc(Nc3ccc(-c4nc5ccccc5[nH]4)cc3)c3cn[nH]c3n2)CC1, the GI50 (A498 renal) is reported as 1920 nM, the TGI (A498 renal) is reported as 3.44 µM and the GI50 (ACHN renal) is reported as 1750 nM. The TGI (ACHN renal) was 3.16 µM, the GI50 (CAKI-1 renal) was 1720 nM and the TGI (CAKI-1 renal) was 3.13 µM. It also gave a GI50 (EKVX NSCLC) of 1730 nM, a TGI (EKVX NSCLC) of 3.26 µM and a GI50 (HCC-2998 colon) of 1740 nM. For the same molecule, the TGI (HCC-2998 colon) was 3.33 µM, the GI50 (HCT-15 colon) was 1150 nM and the TGI (HCT-15 colon) was 2500 nM. It also gave a GI50 (HOP-92 NSCLC) of 1410 nM, a TGI (HOP-92 NSCLC) of 2910 nM and a GI50 (HS 578T breast) of 2150 nM. For the same molecule, the TGI (HS 578T breast) was 5.33 µM, the GI50 (LOX IMVI melanoma) was 1630 nM and the TGI (LOX IMVI melanoma) was 3.13 µM. The GI50 (MCF7 breast) was 1590 nM, the TGI (MCF7 breast) was 3.54 µM and the GI50 (MDA-MB-435) was 1820 nM. For the same molecule, the TGI (MDA-MB-435) was 3.29 µM, the GI50 (NCI-H23 lung) was 1830 nM and the TGI (NCI-H23 lung) was 3.54 µM. The GI50 (OVCAR-3 ovarian) was 1690 nM, the TGI (OVCAR-3 ovarian) was 3.28 µM and the GI50 (OVCAR-5 ovarian) was 1830 nM. It also gave a TGI (OVCAR-5 ovarian) of 3.26 µM, a GI50 (PC-3 prostate) of 1640 nM and a TGI (PC-3 prostate) of 3.13 µM. The GI50 (RXF 393 renal) was 1430 nM, the TGI (RXF 393 renal) was 2850 nM and the GI50 (SF-295 CNS) was 1880 nM. For the same molecule, the TGI (SF-295 CNS) was 3.31 µM, the GI50 (SF-539 CNS) was 1700 nM and the TGI (SF-539 CNS) was 3.08 µM. The GI50 (SK-MEL-28 melanoma) was 1650 nM, the TGI (SK-MEL-28 melanoma) was 3.05 µM and the GI50 (SK-MEL-5 melanoma) was 1750 nM. For the same molecule, the TGI (SK-MEL-5 melanoma) was 3.15 µM, the GI50 (SW-620 colon) was 464 nM and the TGI (SW-620 colon) was 1870 nM. For the same molecule, the GI50 (UO-31 renal) was 1640 nM and the TGI (UO-31 renal) was 3.14 µM.

Work on COC(=O)C1=C(OC(=O)/C(=C/c2c(F)cccc2F)c2ccccc2)C(C(=O)OC)[C@@]2(O)[C@@H](C(=O)OC)[C@H](C)C[C@@H]1[C@@H]2C(=O)OC (some centres undefined) yielded a TGI (786-0 renal) greater than 100 µM, a TGI (A549 NSCLC) greater than 100 µM and a TGI (ACHN renal) greater than 100 µM. It also gave a TGI (BT-549 breast) greater than 100 µM, a TGI (CAKI-1 renal) greater than 100 µM and a TGI (CCRF-CEM leukemia) greater than 100 µM. For the same molecule, the TGI (COLO 205 colon) was greater than 100 µM, the TGI (DU-145 prostate) was greater than 100 µM and the TGI (EKVX NSCLC) was greater than 100 µM. For the same molecule, the TGI (HCT-116 colon) was greater than 100 µM, the TGI (HCT-15 colon) was greater than 100000 nM and the TGI (HL-60(TB) leukemia) was greater than 100 µM. It also gave a TGI (HOP-62 NSCLC) greater than 100 µM, a TGI (HT29 colon) greater than 100 µM and a TGI (IGROV1 ovarian) greater than 100 µM. It also gave a TGI (K-562 leukemia) greater than 100 µM, a TGI (KM12 colon) greater than 100 µM and a TGI (LOX IMVI melanoma) greater than 100 µM. It also gave a TGI (M14 melanoma) greater than 100 µM, a TGI (MALME-3M melanoma) greater than 100 µM and a TGI (MDA-MB-231 breast) greater than 100 µM. It also gave a TGI (MDA-MB-435) greater than 100 µM, a TGI (MOLT-4 leukemia) greater than 100 µM and a TGI (NCI-H226 lung) greater than 100 µM. For the same molecule, the TGI (NCI-H23 lung) was greater than 100 µM, the TGI (NCI-H460 lung) was greater than 100 µM and the TGI (NCI-H522 lung) was greater than 100 µM. It also gave a TGI (NCI/ADR-RES ovarian) greater than 100 µM, a TGI (OVCAR-3 ovarian) greater than 100 µM and a TGI (OVCAR-4 ovarian) greater than 100 µM. It also gave a TGI (OVCAR-5 ovarian) greater than 100 µM, a TGI (OVCAR-8 ovarian) greater than 100 µM and a TGI (PC-3 prostate) greater than 100 µM. For the same molecule, the TGI (RXF 393 renal) was greater than 100000 nM, the TGI (SF-268 CNS) was greater than 100 µM and the TGI (SF-295 CNS) was greater than 100 µM. It also gave a TGI (SF-539 CNS) greater than 100 µM, a TGI (SK-MEL-2 melanoma) greater than 100 µM and a TGI (SK-MEL-28 melanoma) greater than 100 µM. The TGI (SK-OV-3 ovarian) was greater than 100 µM, the TGI (SN12C renal) was greater than 100 µM and the TGI (SNB-19 CNS) was greater than 100 µM. It also gave a TGI (SNB-75 CNS) greater than 100 µM, a TGI (SW-620 colon) greater than 100000 nM and a TGI (T-47D breast) greater than 100 µM. The TGI (TK-10 renal) was greater than 100 µM, the TGI (U251 CNS) was greater than 100 µM and the TGI (UACC-257 melanoma) was greater than 100 µM. For the same molecule, the TGI (UACC-62 melanoma) was greater than 100 µM and the TGI (UO-31 renal) was 8.26 µM.
